Experimental data published in US7700609B2, “Compositions useful as inhibitors of protein kinases” (Vertex Pharmaceuticals Incorporated, priority 2003, dated 2010).

Biological target: T1, Itk (Homo sapiens, UniProt Q08881)
T1 sequence (Q08881 1-620): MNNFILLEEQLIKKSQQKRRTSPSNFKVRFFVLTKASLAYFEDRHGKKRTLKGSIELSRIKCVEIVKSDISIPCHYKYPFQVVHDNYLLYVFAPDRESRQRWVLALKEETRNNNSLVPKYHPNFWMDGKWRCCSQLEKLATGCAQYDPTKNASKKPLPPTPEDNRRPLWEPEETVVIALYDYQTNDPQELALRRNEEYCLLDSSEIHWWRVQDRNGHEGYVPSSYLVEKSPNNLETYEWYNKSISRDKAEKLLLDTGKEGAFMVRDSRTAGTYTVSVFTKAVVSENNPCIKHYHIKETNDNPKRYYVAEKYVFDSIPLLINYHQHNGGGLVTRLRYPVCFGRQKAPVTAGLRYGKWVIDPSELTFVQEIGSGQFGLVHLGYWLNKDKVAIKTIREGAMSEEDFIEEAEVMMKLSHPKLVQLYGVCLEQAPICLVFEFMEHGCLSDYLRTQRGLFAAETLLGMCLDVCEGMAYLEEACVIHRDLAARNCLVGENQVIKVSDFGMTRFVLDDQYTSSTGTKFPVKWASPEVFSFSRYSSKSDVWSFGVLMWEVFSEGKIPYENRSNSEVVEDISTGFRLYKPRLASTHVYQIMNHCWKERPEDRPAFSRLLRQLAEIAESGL
Test: Itk inhibition assay: radioactivity-based (Method A)
Assay type: biochemical
Settings: 15 μM ATP, read-out: IC50 in the radioactive incorporation assay (Method A)
Method: The compounds of the present invention were evaluated as inhibitors of human Itk kinase using either a radioactivity-based, spectrophotometric or alphascreen assay.
Assays were carried out in a mixture of 100 mM HEPES (pH 7.5), 10 mM MgCl2, 25 mM NaCl, 0.01% BSA and 1 mM DTT. Final substrate concentrations were 15 μM [γ-^33P]ATP (400 μCi ^33P ATP/μmol ATP, Amersham Pharmacia Biotech/Sigma Chemicals) and 2 μM peptide (SAM68 protein Δ332-443). Assays were carried out at 25° C. in the presence of 30 nM Itk. An assay stock buffer solution was prepared containing all of the reagents listed above, with the exception of ATP and the test compound of interest. 50 μL of the stock solution was placed in a 96 well plate followed by addition of 1.5 μL of DMSO stock containing serial dilutions of the test compound (typically starting from a final concentration of 15 μM with 2-fold serial dilutions) in duplicate (final DMSO concentration 1.5%). The plate was pre-incubated for 10 minutes at 25° C. and the reaction initiated by addition of 50 μL [γ-^33P]ATP (final concentration 15 μM).
The reaction was stopped after 10 minutes by the addition of 50 μL of a TCA/ATP mixture (20% TCA, 0.4 mM ATP). A Unifilter GF/C 96 well plate (Perkin Elmer Life Sciences, Cat no. 6005174) was pretreated with 50 μL Milli Q water prior to the addition of the entire reaction mixture (150 μL). The plate was washed with 200 μL Milli Q water followed by 200 μL of a TCA/ATP mixture (5% TCA, 1 mM ATP). This wash cycle was repeated a further 2 times. After drying, 30 μL Optiphase ‘SuperMix’ liquid scintillation cocktail (Perkin Elmer) was added to the well prior to scintillation counting (1450 Microbeta Liquid Scintillation Counter, Wallac).
IC50 data were calculated from non-linear regression analysis of the initial rate data using the Prism software package (GraphPad Prism version 3.0cx for Macintosh, GraphPad Software, San Diego Calif., USA).

Row | Compound | IC50 [nM]
1 | Nc1cccc(-c2cc3c(s2)CCc2cnc(Nc4cccc(S(N)(=O)=O)c4)nc2-3)c1 [Compound I-10] | < 1000
2 | CC(=O)Nc1cccc(-c2cc3c(s2)CCc2cnc(Nc4cccc(S(N)(=O)=O)c4)nc2-3)c1 [Compound I-6] | < 1000
3 | COc1cccc(-c2cc3c(s2)CCc2cnc(Nc4ccc(O)cc4)nc2-3)c1 [Compound I-23] | < 1000
4 | COc1cccc(-c2cc3c(s2)CCc2cnc(Nc4cccc(S(N)(=O)=O)c4)nc2-3)c1OC [Compound I-17] | < 1000
5 | NS(=O)(=O)c1cccc(Nc2ncc3c(n2)-c2cc(-c4ccccc4O)sc2CC3)c1 [Compound I-27] | < 1000
